Experiments:
[1] = tested on: Botryotinia fuckeliana (Botrytis cinerea); experiment: Botryotinia fuckeliana (Botrytis cinerea)/Liquid Culture (Gray Mould); format: cell-based; details: liquid culture, compared to untreated control
Procedure: Conidia of the fungus from cryogenic storage are directly mixed into nutrient broth (Vogels broth). After placing a (DMSO) solution of test compound into a microtiter plate (96-well format), the nutrient broth containing the fungal spores is added.

[2] = tested on: Glomerella lagenarium (Colletotrichum lagenarium); experiment: Glomerella lagenarium (Colletotrichum lagenarium)/Liquid Culture (Anthracnose); format: cell-based; details: Colletotrichum orbiculare, liquid culture, compared to untreated control
[3] = tested on: Blumeria graminis f. sp. tritici (Erysiphe graminis f. sp. tritici); experiment: Blumeria graminis f. sp. tritici/Wheat/Leaf Disc Preventative (Powdery Mildew on Wheat); format: in vivo; details: foliar, wheat leaf disc preventative, compared to untreated control
Summary of the method: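 Preventative leaf-disc test: percent disease control versus untreated leaf segments read 6-8 days post-application. Compound spray applied to wheat cv. Kanzler segments on agar one day before shaking infected plants over them; incubation at 20° C and 60% rh, 24 h darkness then 12 h light/12 h dark cycles.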

[4] = tested on: Phaeosphaeria nodorum (Septoria nodorum); experiment: Phaeosphaeria nodorum (Septoria nodorum)/Wheat/Leaf Disc Preventative (Glume Blotch); format: in vivo; details: Parastagonospora nodorum, foliar, wheat leaf disc preventative, compared to untreated control
Summary of the method: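 Preventative test: compound spray first, then spore inoculation after 2 days on cv. Kanzler wheat leaf segments. Incubation in a climate cabinet at 20 °C and 75% rh under a 12 h light/12 h dark cycle. Activity rated as % control relative to untreated discs at 5–7 days post-application.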

[5] = tested on: Monographella nivalis (Microdochium nivale); experiment: Monographella nivalis (Microdochium nivale)/Liquid Culture (Foot Rot Cereals); format: cell-based; details: liquid culture, compared to untreated control
Summary of the method: (§1)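 Liquid-culture format using potato dextrose broth inoculated directly with cryopreserved conidia, dosed with compound from a DMSO solution.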

[6] = tested on: Mycosphaerella arachidis (Cercospora arachidicola); experiment: Mycosphaerella arachidis (Cercospora arachidicola)/Liquid Culture (Early Leaf Spot); format: cell-based; details: liquid culture, compared to untreated control
Summary of the method: as §1

Phytophthora infestans = experiment: whole plant or invertebrate; format: in vivo; details: in Solanum lycopersicum, foliar, read-out: control of Phytophthora infestans
Plasmopara viticola = experiment: whole plant or invertebrate; format: in vivo; details: foliar, read-out: control of Plasmopara viticola
[7] = tested on: Thanatephorus cucumeris (Rhizoctonia solani); experiment: Thanatephorus cucumeris (Rhizoctonia solani)/Liquid Culture (Foot Rot, Damping-Off); format: cell-based; details: liquid culture, compared to untreated control
Procedure: Mycelia fragments of a newly grown liquid culture of the fungus are directly mixed into nutrient broth (PDB potato dextrose broth). After placing a (DMSO) solution of the test compounds into a microtiter plate (96-well format), the nutrient broth containing the fungal material is added.

[8] = tested on: Mycosphaerella graminicola (Septoria tritici); experiment: Mycosphaerella graminicola (Septoria tritici)/Liquid Culture (Septoria Blotch); format: cell-based; details: Zymoseptoria tritici; 20 ppm; liquid culture; compared to untreated control
Summary of the method: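 Results given as % disease control: test compound in DMSO was placed in wells first, then potato dextrose broth carrying cryostored fungal conidia was added.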

[9] = Photostability assay (Atlas Suntest); format: physicochemical; details: Suntest 750 W/m^2, spotted on microscope slides
Procedure: The testing method to measure the photostability data of each compound in table is D1 is as specifically described below. The objective of the photostability assay was to determine the stability of the individual test compounds in a strictly controlled and reproducible environment allowing a comparison of their photostability.
Method: Compounds were dissolved in methanol (HPLC grade) to give 1 g/L stock solutions. Compound stock solution (2 μl) was spotted onto microscope slides in a 3D printed holder and put into the Atlas Suntest. The spectral output power of the Suntest was set to 750 W/m^2, which is considered typical of the daily maximum (noon) irradiance level on a very bright British Summer day. At specific time points slides were removed from the Suntest and placed in 4D vials. Wash solvent made up of 50:40:10 H2O:MeCN:THF (1 mL) is then added to the vials and whirlimixed. The resulting solution is then subsampled to an HPLC vial to be analysed. A Waters UPLC system with Photodiode Array was used with a Waters reverse phase column (BEH C18, 100×2.1 mm×1.7 μm) and acetonitrile (HPLC grade) acidified water (0.2% formic acid) mobile phase at a flow rate of 0.6 mL/min. Peak detection was at the optimum wavelength and peak areas were used for quantification
Initial and subsequent measurements of peak area attributable to the test compound were used to provide a % parent remaining at 3 hours.

[10] = tested on: Magnaporthe grisea (Pyricularia oryzae); experiment: whole plant or invertebrate; format: in vivo; details: foliar, read-out: control of Magnaporthe grisea
Pyrenophora teres = experiment: Pyrenophora teres/Barley/Leaf Disc Preventative (Net Blotch); format: in vivo; details: foliar, 200 ppm, barley leaf disc preventative, compared to untreated control, read-out: control of Pyrenophora teres
Summary of the method: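 Preventative leaf-disc test: inoculation with fungal spores took place 2 days after spraying segments of barley cv. Hasso, placed on agar, with water-diluted formulated compound. Read-out is % disease control per compound.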

Phakopsora pachyrhizi = experiment: Phakopsora pachyrhizi/Soybean/Preventative (Soybean Rust); format: in vivo; details: 288 h, Phakopsora pachyrhizi (Soybean rust); for pest or weed control at 200 ppm: read-out: control (%)
Alternaria solani = experiment: Alternaria solani/Tomato/Leaf Disc (Early Blight); format: in vivo; details: foliar, tomato leaf disc, compared to untreated control
Summary of the method: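 Protective leaf-disc test: compound sprayed onto tomato cv. Baby disks, spore inoculation following after 2 days. Disks kept at 80% rh, 12/12 h light/dark, 23° C. day and 21° C. night; activity read as percent disease control relative to untreated checks 5-7 days post-application.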

[11] = tested on: Puccinia recondita f. sp. tritici; experiment: Puccinia recondita f. sp. tritici/Wheat/Leaf Disc Curative (Brown Rust); format: in vivo; details: foliar, wheat leaf disc curative, compared to untreated control
Summary of the method: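 Formulated compound, diluted in water, is applied to inoculated wheat cv. Kanzler leaf segments on agar one day post-inoculation (pre-incubation dark, 19° C, 75% rh). After 6-8 days at 19° C, 75% rh and 12 h/12 h light, activity is rated as percent disease control relative to untreated segments.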

[12] = tested on: Puccinia recondita f. sp. tritici; experiment: Puccinia recondita f. sp. tritici/Wheat/Leaf Disc Preventative (Brown Rust); format: in vivo; details: foliar, 200 ppm, wheat leaf disc preventative, compared to untreated control, read-out: control of Puccinia recondita f. sp. tritici

SMILES	inhibition of growth at 20 ppm [1] [%]	inhibition of growth at 20 ppm [2] [%]	pest or weed control at 200 ppm [3] [%]	pest or weed control at 200 ppm [4] [%]	inhibition of growth at 20 ppm [5] [%]	inhibition of growth at 20 ppm [6] [%]	pest or weed control at 200 ppm (Phytophthora infestans) [%]	pest or weed control at 200 ppm (Plasmopara viticola) [%]	inhibition of growth at 20 ppm [7] [%]	inhibition of growth at 20 ppm [8] [%]	% Parent Remaining @ 3 hrs [9] [%]	melting point [°C]	pest or weed control at 200 ppm [10] [%]	pest or weed control at 200 ppm (Pyrenophora teres) [%]	pest or weed control at 0.6 ppm (Phakopsora pachyrhizi) [%]	pest or weed control at 2 ppm (Phakopsora pachyrhizi) [%]	pest or weed control at 6 ppm (Phakopsora pachyrhizi) [%]	pest or weed control at 20 ppm (Phakopsora pachyrhizi) [%]	pest or weed control at 60 ppm (Phakopsora pachyrhizi) [%]	pest or weed control at 200 ppm (Phakopsora pachyrhizi) [%]	further results
CO/C=C(\Oc1cc(-n2ccc(C3CC3)n2)ccc1C)C(=O)OC [Compound E-101, methyl (Z)-2-[5-(3-cyclopropylpyrazol-1-yl)-2-methyl-phenoxy]-3-methoxy-prop-2-enoate]	≥ 80	≥ 80	≥ 80	≥ 80	≥ 80	≥ 80	≥ 80	≥ 80	≥ 80	≥ 80	38	115 to 118	–	–	–	–	–	–	–	–	–
CCC(C)c1ccn(-c2ccc(C)c(O/C(=C\OC)C(=O)OC)c2)n1 (stereo not drawn) [Compound E-44, methyl (Z)-3-methoxy-2-[2-methyl-5-(3-sec-butylpyrazol-1-yl)phenoxy]prop-2-enoate]	≥ 80	≥ 80	≥ 80	≥ 80	≥ 80	≥ 80	≥ 80	≥ 80	≥ 80	≥ 80	69	110 to 113	≥ 80	≥ 80	–	–	–	–	–	–	–
CO/C=C(\Oc1cccc(-n2cccc2)c1)C(=O)OC [Compound X-1, reference compound]	–	–	–	–	–	–	–	–	–	–	9	–	–	–	0	0	0	10	10	45	–
CCCc1ccn(-c2ccc(C)c(O/C(=C\OC)C(=O)OC)c2)n1 [Compound E-40, methyl (Z)-3-methoxy-2-[2-methyl-5-(3-propylpyrazol-1-yl)phenoxy]prop-2-enoate]	≥ 80	≥ 80	≥ 80	≥ 80	≥ 80	≥ 80	≥ 80	≥ 80	≥ 80	≥ 80	65	91 to 94	≥ 80	–	10	35	90	95	100	100	–
CO/C=C(\Oc1cc(-n2ccc(C3CCC3)n2)ccc1C)C(=O)OC [Compound E-88, methyl (Z)-2-[5-(3-cyclobutylpyrazol-1-yl)-2-methyl-phenoxy]-3-methoxy-prop-2-enoate]	≥ 80	≥ 80	≥ 80	≥ 80	≥ 80	≥ 80	≥ 80	≥ 80	–	≥ 80	34	91 to 94	≥ 80	–	–	–	–	–	–	–	pest or weed control at 200 ppm (Alternaria solani): ≥ 80%
CO/C=C(\Oc1cc(-n2ccc(CC(C)C)n2)ccc1C)C(=O)OC [Compound E-90, methyl (Z)-2-[5-(3-isobutylpyrazol-1-yl)-2-methyl-phenoxy]-3-methoxy-prop-2-enoate]	≥ 80	≥ 80	≥ 80	≥ 80	≥ 80	≥ 80	≥ 80	≥ 80	–	≥ 80	42	76 to 80	≥ 80	–	–	–	–	–	–	–	–
CO/C=C(\Oc1cc(-n2ccc(C(C)C)n2)c(F)cc1C)C(=O)OC [Compound E-41, methyl (Z)-2-[4-fluoro-5-(3-isopropylpyrazol-1-yl)-2-methyl-phenoxy]-3-methoxy-prop-2-enoate]	–	≥ 80	≥ 80	–	≥ 80	≥ 80	–	≥ 80	≥ 80	≥ 80	28	–	≥ 80	–	–	–	–	–	–	–	pest or weed control at 200 ppm [11]: ≥ 80%; pest or weed control at 200 ppm [12]: ≥ 80%
CO/C=C(\Oc1cc(-n2ccc(OC(C)C)n2)ccc1C)C(=O)OC [Compound E-70, methyl (Z)-2-[5-(3-isopropoxypyrazol-1-yl)-2-methyl-phenoxy]-3-methoxy-prop-2-enoate]	–	≥ 80	≥ 80	≥ 80	≥ 80	≥ 80	≥ 80	≥ 80	–	≥ 80	25	94 to 97	≥ 80	≥ 80	–	–	–	–	–	–	pest or weed control at 200 ppm (Alternaria solani): ≥ 80%
CO/C=C(\Oc1cc(-n2ccc(C(F)(F)F)n2)ccc1C)C(=O)OC [Compound E-105, methyl (Z)-3-methoxy-2-[2-methyl-5-[3-(trifluoromethyl)pyrazol-1-yl]phenoxy]prop-2-enoate]	≥ 80	≥ 80	≥ 80	≥ 80	≥ 80	≥ 80	–	≥ 80	–	≥ 80	74	154 to 156	≥ 80	≥ 80	0	0	20	95	100	100	pest or weed control at 200 ppm (Alternaria solani): ≥ 80%

From patent publication US12043600B2, “Microbiocidal compounds” (SYNGENTA CROP PROTECTION AG, priority 2018, dated 2024)
